Assay results from patent US20260306633A1, “A COMBINATION THERAPY FOR CANCER TREATMENT” (Purdue Research Foundation, priority 2023, published 2026).

Legend:
Format in all cases: cell-based, human
[1] = tested on: TNBC BT-549 cells; assay: Cell survival / cell inhibition (MTT cell cytotoxicity assay) after 24 h treatment with photosensitizer and/or chemotherapeutic agent, dark or light-irradiated; settings: for cell inhibition (%), combination with cisplatin / cell inhibition (%), combination with doxorubicin / cell inhibition (%), combination with fluorouracil / cell inhibition (%), combination with methotrexate / cell inhibition (%), combination with paclitaxel / cell survival, co-treatment with fluorouracil in the dark / cell survival, co-treatment with paclitaxel in the dark: 24 h; for cell inhibition (%), combination with cisplatin / cell inhibition (%), combination with doxorubicin / cell inhibition (%), combination with fluorouracil / cell inhibition (%), combination with methotrexate / cell inhibition (%), combination with paclitaxel: light 0.96 J cm−2; for cell inhibition (%), combination with doxorubicin: PS 100 nM + doxorubicin 500 nM; for cell inhibition (%), combination with fluorouracil / cell survival, co-treatment with fluorouracil in the dark: PS 100 nM + fluorouracil 25 μM; for cell inhibition (%), combination with methotrexate: PS 100 nM + methotrexate 500 nM; for cell inhibition (%), combination with paclitaxel / cell survival, co-treatment with paclitaxel in the dark: PS 100 nM + paclitaxel 50 nM; for cytotoxicity in the absence of light, PS alone: PS 500 nM; for cytotoxicity in the absence of light, PS alone / cell survival, co-treatment with fluorouracil in the dark / cell survival, co-treatment with paclitaxel in the dark: dark
Description: Human mammary epithelial carcinoma cell lines purchased from the American Type Culture Collection BT-549 (ATCC HTB-122) were cultured according to ATCC protocol. BT-549 cells were grown in RPMI 1640 containing 0.023 IU/mL insulin and supplemented with 10% fetal bovine serum (FBS). Cells were grown to 80-90% confluence in 75-cm^2 culture flasks (Corning) for 4-5 days in a humidified incubator (Fisher Scientific Isotemp) with 5% CO2 at 37° C. During the incubation period, growth media was changed once with fresh pre-warmed media (pH 7.2). To harvest the cells, old growth media was aspirated out, and 3 mL 0.25% trypsin solution (Thermo Sci Hyclone) were added. The cells were incubated for 5 minutes, and the cell pellet after centrifugation was resuspended in 3 mL media, broken up gently, then 1 mL of suspended cells was transferred into a new T75 cell culture flask containing pre-warmed media (20 mL) for further culturing.
(§1) Cells were grown to confluence in a 96-well plate (9×10^3 cells/well) and co-treated for 24 hours with synthesized photosensitizers (PSs) and chemotherapeutic agents of varying concentrations ranging from 5 nM to 50 μM) in growth media from a stock solution of 10 mM in DMSO (dimethyl sulfoxide, Fisher). After 24-hour treatment, old growth media containing the PSs or compounds were aspirated out and replaced with fresh media. Plates were then positioned below a non-coherent LumaCare LC-122 650 nm light source for 1 minute at an energy fluence rate of 0.96 J/cm^2 and a power of 16 mW/cm^2 (measured using a Newport optical power meter Model 840). Unirradiated cells served as control samples. The following day, cells were washed with pre-warmed PBS, and 11MTT (3-[4,5-dimethyl-thiazol-2-yl]-2.5-diphenyltetrazolium bromide, Sigma, 0.3 mg/mL) in PBS was added to each well. Samples were allowed to incubate for additional 2 hours, after which dark blue crystals formed. DMSO was added to each well and plates were shaken at room temperature for 1 hour to dissolve the purplish-blue formazan crystals. Absorbance values at 570 nm were measured on a microplate reader (BioRad 550). Cell survival was calculated based on the absorbance of the untreated cells alone (as control) and were directly proportional to the number of viable cells in culture. Results were reported as the mean±SD of triplicate measurements.
The unmetallated PS and the indium complexes were used.
Light dose corresponds to an energy fluence rate of 0.96 J/cm^2 used.
Power of 16 mW/cm^2 used.
Cell inhibition in TNBC cells is based on the cell survival (MTT) assay of the binary therapy, blending the effect of PDT and chemotherapeutic agents. […] MePheo serves as a control compound. TNBC cells were then exposed to light after binary treatment for 24 hours.

[2] = tested on: TNBC cells; assay: Combination index (CI) of binary therapy, Chou-Talalay method, CompuSyn software; settings: PS 50 nM + methotrexate 500 μM (footnote 500 nM)
[3] = tested on: TNBC cells; assay: as above
Description: (§2) The calculated CI values are based on 50 nM concentration for the PSs, 50 nM paclitaxel, 500 nM doxorubicin, 25 μM cisplatin, 25 μM fluorouracil, and 500 nM methotrexate.
as §1
The combination index (CI) for the binary treatment of TNBC cells with a PS and a chemotherapeutic drug was calculated based on the Chou-Talalay method using CompuSyn software. […] The unified dynamics algorithm uses a minimum of dose-data points to fit the general MAL theory.
as §2

[4] = PS 100 nM + cisplatin 25 μM, light

Row | SMILES | cell inhibition (%), combination with cisplatin ([1]; PS 100 nM + cisplatin 25 μM) [%] | cell inhibition (%), combination with doxorubicin [1] [%] | cell inhibition (%), combination with fluorouracil [1] [%] | cell inhibition (%), combination with methotrexate [1] [%] | cell inhibition (%), combination with paclitaxel [1] [%] | cytotoxicity in the absence of light, PS alone [1] | effect of added cisplatin compared to cisplatin-treated cell viability [1, 4] | cell survival, co-treatment with fluorouracil in the dark [1] [%] | cell survival, co-treatment with paclitaxel in the dark [1] [%] | further results
1 | C=Cc1c(C)c2cc3nc(c(CC(=O)OC)c4[nH]c(cc5nc(cc1[nH]2)C(C)=C5CC)c(C)c4C(=O)NCCCCCCNC(=O)c1ccc(C(=C)c2cc4c(cc2C)C(C)(C)CCC4(C)C)cc1)[C@@H](CCC(=O)OC)[C@@H]3C [CBX, chlorin bexarotene conjugate] | 0 | 30 | 6 | 42 | 48 | No cytotoxicity | – | – | – | –
2 | C=Cc1c(C)c2cc3nc(c(CC(=O)OC)c4[nH]c(cc5nc(cc1[nH]2)C(C)=C5CC)c(C)c4C(=O)NCCCCCCNC(=O)CCCC[C@@H]1CCSS1)[C@@H](CCC(=O)OC)[C@@H]3C [CLA, chlorin lipoic acid conjugate] | 65 | 33 | 35 | 43 | 45 | No cytotoxicity | reduced cell survival | 84 | 59 | cell survival, co-treatment with cisplatin upon light ([1]; PS 100 nM + cisplatin 25 μM, light, 1440 min): 35%; cell survival, PS alone ([1]; PS 100 nM, light 0.96 J/cm^2, 1440 min): 90%; combination therapy vs monotherapy (cisplatin) ([1]; PS + cisplatin, light): better photodynamic effect when co-treated with cisplatin than PS-treatment alone
3 | C=Cc1c(C)c2cc3nc(c4c5[nH]c(cc6nc(cc1[nH]2)C(C)=C6CC)c(C)c5C(=O)[C@@H]4C(=O)OC)[C@@H](CCC(=O)OC)[C@@H]3C [MePheo, methyl pheophorbide, reference compound] | 39 | 36 | 34 | 40 | 55 | No cytotoxicity | reduced cell survival | 61 | 46 | combination index (CI) with methotrexate [2]: 7.79; synergism vs additive vs antagonism effect with methotrexate [2]: (SA) (SA (3.3-10), strong antagonism); cell viability reduction (difference) vs PS alone ([1]; PS at lower concentration (CPA: 50 nM) + methotrexate 500 nM, light): 10%; combination index (CI) with cisplatin ([3]; PS 50 nM + cisplatin 25 μM): 6.10; synergism vs additive vs antagonism effect with cisplatin ([3]; PS 50 nM + cisplatin 25 μM): (SA) (SA (3.3-10), strong antagonism); combination index (CI) with doxorubicin ([3]; PS 50 nM + doxorubicin 500 nM): 6.37; synergism vs additive vs antagonism effect with doxorubicin ([3]; PS 50 nM + doxorubicin 500 nM): (SA) (SA (3.3-10), strong antagonism); combination index (CI) with fluorouracil ([3]; PS 50 nM + fluorouracil 25 μM): 17.96; synergism vs additive vs antagonism effect with fluorouracil ([3]; PS 50 nM + fluorouracil 25 μM): (VSA) (VSA (>10), very strong antagonism); combination index (CI) with paclitaxel ([3]; PS 50 nM + paclitaxel 50 nM): 13.27; synergism vs additive vs antagonism effect with paclitaxel ([3]; PS 50 nM + paclitaxel 50 nM): (VSA) (VSA (>10), very strong antagonism)
